Data reported in patent US8093430B2, “Methods of inhibiting ethylene responses in plants using cyclopropene amine compounds” (North Carolina State University, priority 2007, dated 2012).
Like-named read-outs stand apart in the source and are kept apart here.

What was measured:
bananas [1] = assay: Time of protection of bananas against ethylene; format: in vivo, Musa paradisiaca L
Procedure: Untreated mature green bananas (Musa paradisiaca L) from Costa Rica which were ready for market were obtained from the local Farmers Market and were kept at 14.5° C. until use. Bananas were used within 24 hours of arrival. Experiments were conducted at approximately 22-23° C. No damaged fruit were used in the experiments. Bananas were treated to an amount of compound believed to saturate the receptor sites (10 times the minimum amount for protection). The bananas were exposed for 24 hours then vented. They were kept on a laboratory bench and each day a sample was exposed to ethylene. The day the bananas were treated with ethylene and the day the bananas turned yellow and became soft were recorded. Generally, this observation occurred about 3 days after the ethylene treatment day. The treatment day the bananas first ripened was considered to be the time of protection.

banana peel = assay: Protection of chlorophyll in banana peel by compound applied as salt (swab) or gas, then ethylene; format: in vivo, Musa paradisiaca L; settings: for difference between the highest and lowest chlorophyll value of the concentration series: FIG. 3, acetate salts, series 1 to 2.5 times starting at 3 times the gas minimum, 24 hour exposure; for chlorophyll level in banana peels against concentration: FIG. 6A, treated using acetic acid
Procedure: Untreated mature green bananas (Musa paradisiaca L) from Costa Rica which were ready for market were obtained from the local Farmers Market and were kept at 14.5° C. until use. Bananas were used within 24 hours of arrival. Experiments were conducted at approximately 22-23° C. No damaged fruit were used in the experiments. […] The jars were then vented and ethylene was injected and allowed to stand for a minimum of 15 hours and then allowed to stand at 23° C. until ethylene responses developed. When the effect of the respective salts of the cyclopropenes were assayed, the salt was mixed with the desired amount of water containing Tween 20 as a wetting agent and the acid. Usually 200 μl of water, 20 μl of Tween 20 and 100 μl of 0.1 M acid and the compound dissolved in ether were used. These salts were applied to the banana. The peels were swabbed to spread the mixture and increase the exposed surface area. The bananas were placed in an unsealed 3-liter jar and allowed to stand 24 hours. In the case of the carbonate salt, the compound was exposed to carbon dioxide in water long enough for the salt to form. In this case, the carbonate salt was formed by mixing the compound dissolved in water with CO2. The concentration of CO2 in water at 1 atmosphere and 25° C. is reported to be 0.0338 M (Daniels and Alberty 1955) (See Daniels, F, et al., Physical Chemistry, John Wiley and Sons New York, 200 (1955). […] (See Cotton, et al., Advanced Inorganic Chemistry John Wiley and Sons. New York, 152 (1999). At the end of 24 hours, ethylene was injected and the jars were sealed. After 15 hours exposure, the bananas were removed and observed for several days for the effect of ethylene. An untreated check banana and a similar untreated banana treated with ethylene only were included in each experiment for comparison. For gaseous phase treatment, the compound is applied to bananas by pipetting solution onto filter paper. Filter paper is used to increase surface area in a 3 L jar. The jar is sealed for 24 hours to give enough time to diffuse through plant tissue to the ethylene binding sites. 333 ul/L of ethylene gas is added to the jars. The jars are then resealed for 15 hours. This allows for maximal exposure to ethylene to measure effectiveness of the compounds. Firmness was recorded over a number of days. Disappearance of chlorophyll was determined by extracting chlorophyll from banana peels. Absorbance was measured in a spectrometer. For aqueous phase (salts) treatment, compounds were alternatively tested by mixing the solutions in acid and a detergent. The detergent, Tween 20, was used as a wetting agent. Solutions were then applied at various concentrations to the banana with a cotton swab. Bananas were then sealed in a jar and treated in the same manner as with the gas compound procedures described above. Chlorophyll was determined by the method of Arnon (Arnon, D I (1949) Copper content in isolated chloroplasts. Polyphenoloxidase in Beta vulgaris. Plant Physiology 24:1-15) or by using a reflective chlorophyll meter (Field Scout CM 1000 Spectronic Technologies Inc.). To extract chlorophyll, a measured area of peel was cut from representative areas of the peel and placed in boiling water for 3 minutes. The samples were then removed and blended with acetone. After standing overnight in the dark, they were filtered then concentrated in a hood and chlorophyll determined by the method of Arnon (1949) according to the procedures outlined by Holden (1965). Banana peel samples were cut and mixed with acetone to extract chlorophyll. Samples were made in an ether solution and absorbance measured at 663 nm.

bananas [2] = assay: Minimum amount of cyclopropene as a gas required to protect bananas from ethylene; format: in vivo, Musa paradisiaca L; settings: for minimum concentration required for protection of bananas: 24 hour exposure, compound as a gas; for Minimum Concentration: amount of compound as a gas that would protect bananas by a 24 hour exposure; for minimum protection value: as a gas, restated with FIG. 3
Procedure: Untreated mature green bananas (Musa paradisiaca L) from Costa Rica which were ready for market were obtained from the local Farmers Market and were kept at 14.5° C. until use. Bananas were used within 24 hours of arrival. Experiments were conducted at approximately 22-23° C. No damaged fruit were used in the experiments. […] The jars were then vented and ethylene was injected and allowed to stand for a minimum of 15 hours and then allowed to stand at 23° C. until ethylene responses developed. For gaseous phase treatment, the compound is applied to bananas by pipetting solution onto filter paper. Filter paper is used to increase surface area in a 3 L jar. The jar is sealed for 24 hours to give enough time to diffuse through plant tissue to the ethylene binding sites. 333 ul/L of ethylene gas is added to the jars. The jars are then resealed for 15 hours. This allows for maximal exposure to ethylene to measure effectiveness of the compounds. Firmness was recorded over a number of days. Disappearance of chlorophyll was determined by extracting chlorophyll from banana peels. Absorbance was measured in a spectrometer. The minimum amount of cyclopropene necessary to protect bananas from ethylene was determined after the bananas had been exposed to the compound for 24 hours. Following this time, the fruits were vented for 10 minutes and then exposed to 333 ? l^-I of ethylene gas treatment. This has been the procedure for most other studies involving cyclopropene compounds and bananas. This time was used so that a reasonable comparison could be made with previous work ([…]. et al. 1996 a; 1996b; 1999; 2001; 2003). (See […]., et al., Effect of 1-methylcyclopropene, and methylenecyclopropene on ethylene binding and ethylene action in cut carnations, Plant Growth Reg., 18, 79-86, (1996a); […]., et al., The effect of chemical structure on the antagonism by cyclopropenes of ethylene responses in banana, Plant Growth Reg., 33, 107-110 (2001); […]., et al., 1-Substituted cyclopropenes: Effective blocking agents for ethylene action in plants, Plant Growth Reg. 40, 221-228 (2003)).

[3] = cited from earlier work
bananas [4] = assay: Stability of the compound after 1 hour incubation with acids or salts at different pH, read by banana chlorophyll; format: physicochemical, Musa paradisiaca L; settings: for Chlorophyll (% of control): readings at 7 days
Procedure: Chlorophyll was determined by the method of Arnon (Arnon, D I (1949) Copper content in isolated chloroplasts. Polyphenoloxidase in Beta vulgaris. Plant Physiology 24:1-15) or by using a reflective chlorophyll meter (Field Scout CM 1000 Spectronic Technologies Inc.). To extract chlorophyll, a measured area of peel was cut from representative areas of the peel and placed in boiling water for 3 minutes. The samples were then removed and blended with acetone. After standing overnight in the dark, they were filtered then concentrated in a hood and chlorophyll determined by the method of Arnon (1949) according to the procedures outlined by Holden (1965).
However, these compounds are thought to be unstable under very acidic conditions. Liao et al. in some synthetic procedures lower the pH to 1-3.

Petunia hybridia = assay: Protection of petunia flowers against ethylene; format: in vivo; settings: 100 nl, gas or carbonate salt form, ethylene 24 hours, at 5 days, FIG. 8
Procedure: FIG. 8. Protection of flowers (Petunia hybridia) by N,N-dipropyl(1-cyclopropenylmethyl)amine (100 nl) as a gas or as the carbonate salt. Treatment included check (control), ethylene, gas form, salt form of N,N-dipropyl(1-cyclopropenylmethyl)amine, from left to right. All except check were subjected to ethylene for 24 hours.
In experiments to study effects of the compounds described herein on the ethylene response in flowering plants, the petunia (Petunia hybridia), a well known ethylene sensitive flower, and the dandelion (Krigia dandelion) were used in the experiments.
FIGS. 7 and 8 present the results of using 100 nl N,N-dipropyl(1-cyclopropenylmethyl)amine on dandelions and petunias, respectively. The Krigia dandelion is commonly known as a weed that can be found along roads during particular times of the year such as spring and summer. It is of interest because ethylene can cause the plant to become dormant and, as a defense mechanism, the plant can become dormant when there is drought. […] The petunia is a well-known ethylene sensitive flower.

[5] = 24 hour exposure at 10 times the minimum amount, daily ethylene challenge

With CN(C)CC1=CC1 [N,N--Dimethyl (1-Cyclopropenylmethyl)amine] the protection time (bananas [1]) was 34 days, the “protection time” value (bananas [1]; [5]) was 34 days and the “difference between the highest and lowest chlorophyll value of the concentration series” value (banana peel) was 30.9 % of the control. The “chlorophyll level in banana peels against concentration” value (banana peel) was “ascending concentrations to have increasingly higher chlorophyll levels”, the “minimum concentration required for protection of bananas” value (“minimum concentration required” below) (bananas [2]) was 73 nl l^−I and the “Minimum Concentration” value (bananas [2]) was 73 nl/l. The minimum protection value (bananas [2]) was 73 nl l^−1.
In the case of O=C(O)O [carbonic acid], the pKa ([3]; corrected for the equilibrium (Cotton et al. 1999)) is given as 3.58 and the pKa ([3]; usually published value) is given as 6.38.
For O=C=O [CO2, carbon dioxide], the concentration in water ([3]; 1 atmosphere and 25° C. (Daniels and Alberty 1955)) is given as 0.0338 M.
In the case of N-(1-methylcyclopropene)-aniline, the protection time (bananas [1]) is reported as 32 days, the “protection time” value (bananas [1]; [5]) is reported as 32 days and the “minimum concentration required” value (bananas [2]) is reported as 248 nl l^−I. For the same molecule, the “Minimum Concentration” value (bananas [2]) was 248 nl/l.
For CCN(CC)CC1=CC1 [N,N--Diethyl (1-Cyclopropenylmethyl)amine], the protection time (bananas [1]) was 32 days, the “protection time” value (bananas [1]; [5]) was 32 days and the “minimum concentration required” value (bananas [2]) was 59 nl l^−I. The “Minimum Concentration” value (bananas [2]) was 59 nl/l.
In the case of C1=C(CNCC2=CC2)C1, the protection time (bananas [1]) is reported as 33 days, the “protection time” value (bananas [1]; [5]) is reported as 33 days and the “minimum concentration required” value (bananas [2]) is reported as 5.3 nl l^−I. The “Minimum Concentration” value (bananas [2]) was 5.7 nl/l.
For CCCCN(CCCC)CC1=CC1 [N,N--Dibutyl (1-Cyclopropenylmethyl)amine], the protection time (bananas [1]) was 33 days, the “protection time” value (bananas [1]; [5]) was 33 days and the “rapidity of receptor inactivation relative to the dimethyl compound” value (banana peel; FIG. 3, 24 hour exposure) was 1.55 ×. For the same molecule, the “difference between the highest and lowest chlorophyll value of the concentration series” value (banana peel) was 48 % of the control, the “protection of bananas compared with the dimethyl compound” value (banana peel; FIG. 5, aqueous phase, swabbed onto the top half, four days after exposure to ethylene gas) was “less protection” and the “chlorophyll level in banana peels against concentration” value (banana peel) was “ascending concentrations to have increasing levels of chlorophyll”. For the same molecule, the “Chlorophyll (% of control)” value (bananas [4]; Gas control, bananas exposed as a gas 24 hours then ethylene 15 hours) was 100 % of control, the “inactivation by acids or salts” value (bananas [4]; different pH values down to pH 1.5 for 1 hour, re-isolated and used in the usual treatments) was “little or no inactivation occurred” and the “Chlorophyll (% of control)” value (bananas [4]; incubated 1 hour in H2O, neutralized, ether extract applied as a gas 24 hours, ethylene 15 hours) was 98 % of control. The “Chlorophyll (% of control)” value (bananas [4]; incubated 1 hour in phosphoric acid (.1M, pH 1.5)) was 98 % of control, the “Chlorophyll (% of control)” value (bananas [4]; incubated 1 hour in sodium acetate (0.1M, pH 4.75)) was 100 % of control and the “Chlorophyll (% of control)” value (bananas [4]; incubated 1 hour in sodium formate (0.1M, pH 3.0)) was 100 % of control. The “minimum concentration required” value (bananas [2]) was 184 nl l^−I, the “Minimum Concentration” value (bananas [2]) was 184 nl/l and the minimum protection value (bananas [2]) was 184 nl l^−1.
For CCCN(CCC)CC1=CC1 [N,N--Dipropyl (1-Cyclopropenylmethyl)amine], the protection time (bananas [1]) was 33 days, the “protection time” value (bananas [1]; [5]) was 33 days and the “ethylene response of bananas after gas exposure” value (banana peel; FIG. 4, gaseous phase, 10 and 15 μL, after seven days) was “had already begun showing an ethylene response”. The “Chlorophyll (% of control)” value (banana peel; acetic acid + 50 μl, 24 hours, ethylene (300 μl/l) 15 hours, 5 days after ethylene) was 43 % of Control, the “Chlorophyll (% of control)” value (banana peel; acetic acid + 200 μl, 24 hours, ethylene (300 μl/l) 15 hours, 5 days after ethylene) was 46 % of Control and the “Chlorophyll (% of control)” value (banana peel; applied as gas, ethylene 15 hours, readings at 5 days) was 100 % of control. For the same molecule, the “effectiveness of the carbonate salt compared with other acids” value (banana peel; banana peel, Table 4) was “as effective as the other acids”, the “Chlorophyll (% of control)” value (banana peel; carbonic + 50 μl, 24 hours, ethylene (300 μl/l) 15 hours, 5 days after ethylene) was 47 % of Control and the “Chlorophyll (% of control)” value (banana peel; carbonic acid + 200 μl, 24 hours, ethylene (300 μl/l) 15 hours, 5 days after ethylene) was 48 % of Control. For the same molecule, the “Chlorophyll (% of control)” value (banana peel; salt with 0.1 M acetic acid buffer (pH 4.75), swab to ½ banana, 24 hours, ethylene 15 hours, readings at 5 days) was 33 % of control, the “Chlorophyll (% of control)” value (banana peel; salt with 0.1 M acetic acid, swab to ½ banana, 24 hours, ethylene 15 hours, readings at 5 days) was 31 % of control and the “Chlorophyll (% of control)” value (banana peel; salt with 0.1 M formic acid, swab to ½ banana, 24 hours, ethylene 15 hours, readings at 5 days) was 30 % of control. The “Chlorophyll (% of control)” value (banana peel; salt with phosphoric acid (pH 1.5), swab to ½ banana, 24 hours, ethylene 15 hours, readings at 5 days) was 30 % of control, the “effect on petunia flowers exposed to ethylene” value (Petunia hybridia) was “appears to withstand the ethylene response” and the “minimum concentration required” value (bananas [2]) was 30 nl l^−I. For the same molecule, the “Minimum Concentration” value (bananas [2]) was 30 nl/l.
